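Interpolation was linear, between the two tested concentrations surrounding the appropriate level; five concentrations were tested over 48 hours in 96-well plates. Here, GI50 denotes the concentration required for 50% inhibition of growth.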 The source made the active and inactive calls. No stated cut-off is given here; in the data, active = GI50 up to about 1.1 µM and inactive = higher.
Experiments:
Experiment in all cases: NCI-60 cell line screen, 48 h
MDA-MB-435 = tested on: MDA-MB-435
BT-549 = tested on: BT-549
SNB-19 = tested on: SNB-19
SF-295 = tested on: SF-295
MDA-N = tested on: MDA-N
HCC 2998 = tested on: HCC 2998
SW-620 = tested on: SW-620
NCI-H522 = tested on: NCI-H522
SN12C = tested on: SN12C
TK-10 = tested on: TK-10
SF-539 = tested on: SF-539
SR = tested on: SR
PC-3 = tested on: PC-3
UACC-257 = tested on: UACC-257
NCI-H23 = tested on: NCI-H23
RXF 393 = tested on: RXF 393
HOP-92 = tested on: HOP-92
CAKI-1 = tested on: CAKI-1
A549 = tested on: A549
T47D = tested on: T47D
MDA-MB-231 = tested on: MDA-MB-231
Malme-3M = tested on: Malme-3M
OVCAR-3 = tested on: OVCAR-3
OVCAR-5 = tested on: OVCAR-5
UACC-62 = tested on: UACC-62
IGROV-1 = tested on: IGROV-1
A498 = tested on: A498
KM12 = tested on: KM12
U-251 = tested on: U-251
RPMI-8226 = tested on: RPMI-8226
COLO 205 = tested on: COLO 205
MOLT-4 = tested on: MOLT-4
SK-MEL-2 = tested on: SK-MEL-2
OVCAR-4 = tested on: OVCAR-4
CCRF-CEM = tested on: CCRF-CEM
HT-29 = tested on: HT-29
NCI/ADR-RES = tested on: NCI/ADR-RES
Hs-578T = tested on: Hs-578T
SK-OV-3 = tested on: SK-OV-3
OVCAR-8 = tested on: OVCAR-8
ACHN = tested on: ACHN
DU-145 = tested on: DU-145
MCF7 = tested on: MCF7
NCI-H460 = tested on: NCI-H460
HOP-62 = tested on: HOP-62
UO-31 = tested on: UO-31
SF-268 = tested on: SF-268
SK-MEL-28 = tested on: SK-MEL-28
EKVX = tested on: EKVX
HCT-15 = tested on: HCT-15
SNB-75 = tested on: SNB-75
786-0 = tested on: 786-0
HCT-116 = tested on: HCT-116
M14 = tested on: M14
LOX IMVI = tested on: LOX IMVI
K562 = tested on: K562
SK-MEL-5 = tested on: SK-MEL-5
NCI-H226 = tested on: NCI-H226
HL-60 = tested on: HL-60

For `O=C(O)c1c2c(c(O)c3c1CN(C1CCCCC1)CO3)OCN(C1CCCCC1)C2`, the GI50 (MDA-MB-435) was 58.1 µM (inactive), the GI50 (BT-549) was > 100 µM (inactive) and the GI50 (SNB-19) was > 100 µM (inactive). For the same compound, the GI50 (SF-295) was 92.7 µM (inactive), the GI50 (MDA-N) was > 100 µM (inactive) and the GI50 (HCC 2998) was 21.6 µM (inactive). For the same compound, the GI50 (SW-620) was 22 µM (inactive), the GI50 (NCI-H522) was 29.1 µM (inactive) and the GI50 (SN12C) was 27.2 µM (inactive). For the same compound, the GI50 (TK-10) was > 100 µM (inactive), the GI50 (SF-539) was 37 µM (inactive) and the GI50 (SR) was 27.2 µM (inactive). The GI50 (PC-3) was > 100 µM (inactive), the GI50 (UACC-257) was > 100 µM (inactive) and the GI50 (NCI-H23) was > 100 µM (inactive). For the same compound, the GI50 (RXF 393) was 63.4 µM (inactive), the GI50 (HOP-92) was > 100 µM (inactive) and the GI50 (CAKI-1) was > 100 µM (inactive). The GI50 (A549) was > 100 µM (inactive), the GI50 (T47D) was > 100 µM (inactive) and the GI50 (MDA-MB-231) was 46.7 µM (inactive). For the same compound, the GI50 (Malme-3M) was > 100 µM (inactive), the GI50 (OVCAR-3) was 69 µM (inactive) and the GI50 (OVCAR-5) was > 100 µM (inactive). For the same compound, the GI50 (UACC-62) was > 100 µM (inactive), the GI50 (IGROV-1) was 74.5 µM (inactive) and the GI50 (A498) was > 100 µM (inactive). For the same compound, the GI50 (KM12) was > 100 µM (inactive), the GI50 (U-251) was 42.6 µM (inactive) and the GI50 (RPMI-8226) was 40.5 µM (inactive). For the same compound, the GI50 (COLO 205) was > 100 µM (inactive), the GI50 (MOLT-4) was 18.5 µM (inactive) and the GI50 (SK-MEL-2) was > 100 µM (inactive). For the same compound, the GI50 (OVCAR-4) was > 100 µM (inactive), the GI50 (CCRF-CEM) was 10.4 µM (inactive) and the GI50 (HT-29) was > 100 µM (inactive). For the same compound, the GI50 (NCI/ADR-RES) was > 100 µM (inactive), the GI50 (Hs-578T) was > 100 µM (inactive) and the GI50 (SK-OV-3) was > 100 µM (inactive). For the same compound, the GI50 (OVCAR-8) was 45.1 µM (inactive), the GI50 (ACHN) was > 100 µM (inactive) and the GI50 (DU-145) was > 100 µM (inactive). The GI50 (MCF7) was 20.1 µM (inactive), the GI50 (NCI-H460) was 19 µM (inactive) and the GI50 (HOP-62) was 83.2 µM (inactive). The GI50 (UO-31) was > 100 µM (inactive), the GI50 (SF-268) was 46.3 µM (inactive) and the GI50 (SK-MEL-28) was > 100 µM (inactive). The GI50 (EKVX) was 47.1 µM (inactive), the GI50 (HCT-15) was greater than 100 µM and the GI50 (SNB-75) was > 100 µM (inactive). For the same compound, the GI50 (786-0) was 68.4 µM (inactive), the GI50 (HCT-116) was 39.3 µM (inactive) and the GI50 (M14) was > 100 µM (inactive). For the same compound, the GI50 (LOX IMVI) was 21.3 µM (inactive), the GI50 (K562) was 31.3 µM (inactive) and the GI50 (SK-MEL-5) was > 100 µM (inactive).

In the case of `CC(C)=NC(C(=O)O)C(C)(C)S` (centres undefined), the GI50 (MDA-MB-435) is reported as > 100 µM (inactive), the GI50 (BT-549) is reported as > 100 µM (inactive) and the GI50 (SNB-19) is reported as > 100 µM (inactive). The GI50 (SF-295) was > 100 µM (inactive), the GI50 (MDA-N) was > 100 µM (inactive) and the GI50 (SW-620) was > 100 µM (inactive). For the same compound, the GI50 (NCI-H522) was > 100 µM (inactive), the GI50 (SN12C) was > 100 µM (inactive) and the GI50 (TK-10) was > 100 µM (inactive). The GI50 (SF-539) was > 100 µM (inactive), the GI50 (SR) was > 100 µM (inactive) and the GI50 (PC-3) was > 100 µM (inactive). The GI50 (UACC-257) was > 100 µM (inactive), the GI50 (NCI-H23) was > 100 µM (inactive) and the GI50 (RXF 393) was > 100 µM (inactive). For the same compound, the GI50 (HOP-92) was > 100 µM (inactive), the GI50 (CAKI-1) was > 100 µM (inactive) and the GI50 (A549) was > 100 µM (inactive). For the same compound, the GI50 (T47D) was > 100 µM (inactive), the GI50 (MDA-MB-231) was > 100 µM (inactive) and the GI50 (Malme-3M) was > 100 µM (inactive). The GI50 (OVCAR-3) was > 100 µM (inactive), the GI50 (OVCAR-5) was > 100 µM (inactive) and the GI50 (UACC-62) was > 100 µM (inactive). For the same compound, the GI50 (IGROV-1) was > 100 µM (inactive), the GI50 (A498) was > 100 µM (inactive) and the GI50 (KM12) was > 100 µM (inactive). For the same compound, the GI50 (U-251) was > 100 µM (inactive), the GI50 (RPMI-8226) was > 100 µM (inactive) and the GI50 (NCI-H226) was > 100 µM (inactive). The GI50 (COLO 205) was > 100 µM (inactive), the GI50 (MOLT-4) was > 100 µM (inactive) and the GI50 (SK-MEL-2) was > 100 µM (inactive). For the same compound, the GI50 (OVCAR-4) was > 100 µM (inactive), the GI50 (CCRF-CEM) was > 100 µM (inactive) and the GI50 (HL-60) was > 100 µM (inactive). The GI50 (HT-29) was > 100 µM (inactive), the GI50 (NCI/ADR-RES) was > 100 µM (inactive) and the GI50 (Hs-578T) was > 100 µM (inactive). The GI50 (SK-OV-3) was > 100 µM (inactive), the GI50 (OVCAR-8) was > 100 µM (inactive) and the GI50 (ACHN) was > 100 µM (inactive). For the same compound, the GI50 (DU-145) was > 100 µM (inactive), the GI50 (MCF7) was > 100 µM (inactive) and the GI50 (NCI-H460) was > 100 µM (inactive). For the same compound, the GI50 (HOP-62) was > 100 µM (inactive), the GI50 (UO-31) was > 100 µM (inactive) and the GI50 (SF-268) was > 100 µM (inactive). The GI50 (SK-MEL-28) was > 100 µM (inactive), the GI50 (EKVX) was > 100 µM (inactive) and the GI50 (HCT-15) was greater than 100 µM. For the same compound, the GI50 (SNB-75) was > 100 µM (inactive), the GI50 (786-0) was > 100 µM (inactive) and the GI50 (HCT-116) was > 100 µM (inactive). The GI50 (M14) was > 100 µM (inactive), the GI50 (LOX IMVI) was > 100 µM (inactive) and the GI50 (K562) was > 100 µM (inactive).

— ChEMBL document CHEMBL1201862, “PubChem BioAssay data set” (2004)
